Laboratory results from US20260092057A1, “BCL-XL/BCL-2 DEGRADERS AND USES THEREOF” (Kymera Therapeutics, Inc., priority 2022, published 2026).

What was measured:
[1] = system: MOLT-4 cells; experiment: CTG (CellTiter-Glo) cell viability assay, MOLT-4; format: cell-based; conditions: Homo sapiens, MOLT-4, 72 h, MOLT-4, 3 day; read-out: CTG Cell Viability Assay - MOLT-4 3 day: Average external-IC50
Method: (§1) Compound-mediated viability effect on MOLT-4 and Caki-2 was quantitatively determined using the CellTiter-Glo® Luminescent Cell Viability Assay kit from Promega (Catalog number G7570) following manufacturer's recommended procedures. Briefly, MOLT-4 and Caki-2 cells were seeded into 384 well plates (Grenier Bio-One, Catalog number 781080) with a density of 10,000 cells per well. Compounds were then added to the assay plate with final top concentration of 10 µM and 1:3 dilution series with total of 9 doses. The final DMSO concentration is normalized to 0.2%. The assay plates were incubated at 37° C. for 3 days under 5% CO2. Then the assay plate was equilibrated at room temperature for 10 minutes. To determine cell viability, 30 uL CellTiter Glo reagent was added to each well and the assay plate was centrifuged at 1000 rpm for 30 second, incubated at room temperature for 10 min, and analyzed by detecting the luminescence using a multimode plate reader (EnVision 2105, PerkinElmer). The data was then analyzed by software Prism 7.0 from GraphPad and the dose response curves are fit using a three-parameter logistic equation to calculate IC50.
(§2) The letter codes for MOLT-4 IC50 include: A (<0.1 μM); B (0.1-1.0 μM); C (>1.0-3.0 μM); and D (>3.0 μM). The letter codes for Caki-2 IC50 include: A (<5 μM); B (5-10 μM); C (>10-30.0 μM); and D (>30.0 μM).

[2] = system: Caki-2 cells; experiment: CTG (CellTiter-Glo) cell viability assay, Caki-2; format: cell-based; conditions: Homo sapiens, CAKI-2, 72 h, Caki-2, 3-day; read-out: CTG Chempartner/PHA- Caki-2 3-day: Average external-IC50
Method: as §1, §2

| Structure (SMILES) | IC50 [1] | IC50 [2] |
| --- | --- | --- |
| Cc1ncsc1-c1ccc([C@H](C)NC(=O)[C@@H]2C[C@@H](O)CN2C(=O)[C@@H](NC(=O)CCCCC(=O)N2C[C@H]3C[C@@H]2CN3Cc2ccc(-c3ccc(Cl)cc3)c(CN3CCN(c4ccc(C(=O)NS(=O)(=O)c5ccc(N[C@H](CCN(C)C)CSc6ccccc6)c([N+](=O)[O-])c5)cc4)CC3)c2)C(C)(C)C)cc1 [I-16] | > 3000 nM | > 30000 nM |
| Cc1ncsc1-c1ccc([C@H](C)NC(=O)[C@@H]2C[C@@H](O)CN2C(=O)[C@@H](NC(=O)C#CC2CCN(CCCNc3ccc(S(=O)(=O)NC(=O)c4ccc(N5CCC([C@@H](O)c6ccccc6-c6ccc(Cl)cc6)CC5)cc4Oc4cnc5[nH]ccc5c4)cc3S(=O)(=O)C(F)(F)F)CC2)C(C)(C)C)cc1 [I-117] | > 3000 nM | > 30000 nM |
| Cc1ncsc1-c1ccc([C@H](C)NC(=O)[C@@H]2C[C@@H](O)CN2C(=O)[C@@H](NC(=O)CCCCCC(=O)N2CCN(CC[C@H](CSc3ccccc3)Nc3ccc(S(=O)(=O)NC(=O)c4ccc(N5CCC(N(C)C)CC5)cc4)cc3S(=O)(=O)C(F)(F)F)CC2)C(C)(C)C)cc1 [I-48] | > 3000 nM | > 30000 nM |
| Cc1ncsc1-c1ccc([C@H](C)NC(=O)[C@@H]2C[C@@H](O)CN2C(=O)[C@@H](NC(=O)CCCCCCCCC(=O)NCc2ccc(-c3ccc(Cl)cc3)c(CN3CCN(c4ccc(C(=O)NS(=O)(=O)c5ccc(N[C@H](CCN(C)C)CSc6ccccc6)c([N+](=O)[O-])c5)cc4)CC3)c2)C(C)(C)C)cc1 [I-20] | > 3000 nM | > 30000 nM |

Continued, in another order:

| IC50 [1] | Structure (SMILES) | IC50 [2] |
| --- | --- | --- |
| > 3000 nM | Cc1ncsc1-c1ccc([C@H](C)NC(=O)[C@@H]2C[C@@H](O)CN2C(=O)[C@@H](NC(=O)CCCCCC(=O)N2CCN(CC[C@H](CSc3ccccc3)Nc3ccc(S(=O)(=O)NC(=O)c4ccc(N5CCN(C)CC5)cc4)cc3S(=O)(=O)C(F)(F)F)CC2)C(C)(C)C)cc1 [I-53] | > 30000 nM |
| > 3000 nM | C#Cc1ccc(CNC(=O)[C@@H]2C[C@@H](O)CN2C(=O)[C@@H](NC(=O)C2(F)CC2)C(C)(C)C)c(OCCCCCCC(=O)N2CCN(CCCNc3ccc(S(=O)(=O)NC(=O)c4ccc(N5CCN(CC6=C(c7ccc(Cl)cc7)CC(C)(C)CC6)CC5)cc4Oc4cnc5[nH]ccc5c4)cc3S(=O)(=O)C(F)(F)F)CC2)c1 [I-104] | > 30000 nM |
| < 100 nM | C#Cc1ccc(C(CO)NC(=O)[C@@H]2C[C@@H](O)CN2C(=O)[C@@H](NC(=O)CCCCCCC(=O)N2CCN(C[C@]3(C)CCC(c4ccc(Cl)cc4)=C(CN4CCN(c5ccc(C(=O)NS(=O)(=O)c6ccc(NCCCN7CCOCC7)c(S(=O)(=O)C(F)(F)F)c6)c(Oc6cnc7[nH]ccc7c6)c5)CC4)C3)CC2)C(C)(C)C)cc1 (some centres unmarked) [I-139] | > 30000 nM |
| > 3000 nM | Cc1ncsc1-c1ccc([C@H](C)NC(=O)[C@@H]2C[C@@H](O)CN2C(=O)[C@@H](NC(=O)CCCCCC(=O)NCCCNc2ccc(S(=O)(=O)NC(=O)c3ccc(N4CCC([C@H](O)c5ccccc5-c5ccc(Cl)cc5)CC4)cc3Oc3cnc4[nH]ccc4c3)cc2S(=O)(=O)C(F)(F)F)C(C)(C)C)cc1 [I-56] | > 30000 nM |
| > 3000 nM | Cc1ncsc1-c1ccc([C@H](C)NC(=O)[C@@H]2C[C@@H](O)CN2C(=O)[C@@H](NC(=O)CCCCCC(=O)N2CCN(Cc3ccc(-c4ccc(Cl)cc4)c([C@H](O)C4CCN(c5ccc(C(=O)NS(=O)(=O)c6ccc(N[C@H](CCN(C)CCO)CSc7ccccc7)c(S(=O)(=O)C(F)(F)F)c6)cc5)CC4)c3)CC2)C(C)(C)C)cc1 [I-30] | > 30000 nM |
| 100 to 1000 nM | COc1ccc(Oc2cc(N3CCN(CC4=C(c5ccc(Cl)cc5)CC(C)(C)CC4)CC3)ccc2C(=O)NS(=O)(=O)c2ccc(NCCCN3CCN(C(=O)CCCCCC(=O)N[C@H](C(=O)C4C[C@H](O)C[C@H]4C(=O)C[C@@H](C)c4ccc(-c5scnc5C)cc4)C(C)(C)C)CC3)c(S(=O)(=O)C(F)(F)F)c2)cc1 (some centres unmarked) [I-136] | > 30000 nM |
